Reference: US11958863B2, “Binding competitors for use in macrophilin-binding pharmaceutical assays and methods of use thereof” (Siemens Healthcare Diagnostics Inc., priority 2018, dated 2024)

How the values were obtained:
[1] = tested on: everolimus assay antibody (155-M1 Clone); test: Cross-reactivity with everolimus assay antibody; type: binding, mouse; conditions: for % Cross-Reactivity: everolimus assay antibody 155-M1 clone
Description: (§1) The automated DIMENSION® assay system (Siemens Healthcare Diagnostics Inc., Tarrytown, NY), the everolimus (EVRO) assay method uses an immunoassay technique in which free and everolimus-bound antibody-enzyme conjugate is separated using magnetic particles. The assay antibody used for this assay is a mouse monoclonal antibody (cell line: 155-M1). The assay was performed using a method specific FLEX® reagent cartridge (Siemens Healthcare Diagnostics Inc., Tarrytown, NY). The FLEX® reagent cartridge contains a pretreatment reagent, antibody-β-galactosidase conjugate, everolimus analog immobilized on chromium dioxide particles, chlorophenol red β-d-galactopyranoside (CPRG) substrate, and diluent to hydrate the tablets. To perform the EVRO assay, a sample cup (or SSC) containing the whole blood sample to be analyzed and an EVRO FLEX® reagent cartridge were placed appropriately on the DIMENSION® system. The DIMENSION® system mixed and lysed the whole blood sample in the presence of the pretreatment reagent that contains detergents and a displacer (FK506 or FK506 analogs as described previously). This reagent contains a displacer which acts to displace everolimus in the sample from endogenous binding proteins (immunophilins such as FKBPs, etc.). The lysed sample was then mixed with the antibody enzyme conjugate. The everolimus present in the sample was bound by the everolimus antibody. Magnetic particles coated with everolimus analog were added to bind free (unbound) antibody-enzyme conjugate. The reaction mixture was then separated magnetically. Following separation, the supernatant containing the everolimus-antibody-enzyme complex was transferred to a cuvette and mixed with the substrate, chlorophenol red β-d-galactopyranoside (CPRG). β-galactosidase catalyzes the hydrolysis of CPRG to produce chlorophenol red (CPR) that absorbs light maximally at 577 nm. The change in absorbance at 577 nm due to the formation of CPR is directly proportional to the amount of everolimus in the patient's sample and is measured using a bichromatic (577 nm, 700 nm) rate technique.
(§2) Table 2 indicates the cross-reactivities detected for the various displacers of the present disclosure with the everolimus assay antibody (155-M1), while Table 3 indicates the cross-reactivities detected for the various displacers of the present disclosure with the tacrolimus assay antibody (1E2 clone).

[2] = tested on: tacrolimus assay antibody (1E2 Clone); test: Cross-reactivity with tacrolimus assay antibody; type: binding; conditions: for Cross-reactivity with tacrolimus assay antibody (in words): 1E2 clone, compared with the '518 patent analog; for % Cross-Reactivity: tacrolimus assay antibody 1E2 clone
Description: as §2
Next, the cross-reactivity of each of the analogs used in the everolimus assay was tested with the antibody used in the tacrolimus assay (Table 3). While efforts may be made to minimize reagent carryover from the everolimus assay to the tacrolimus assay, an automated instrument may run both everolimus and tacrolimus (or sirolimus) assays simultaneously. Therefore, due to the use of a large amount of displacer (tacrolimus analogs) present in the everolimus assay, the displacer could be carried into the tacrolimus assay, and this would cause a falsely elevated signal in the tacrolimus assay if cross-reaction were observed.

[3] = tested on: endogenous binding proteins (immunophilins such as FKBPs); test: Everolimus (EVRO) DIMENSION immunoassay standard curves with displacers; conditions: whole blood sample
Description: as §1
The assay was conducted in the absence of any displacer as well as in the presence of the following displacers: tacrolimus (FK506, as represented by Formula I), FK506 Ester (disclosed in U.S. Pat. No. 7,186,518), FK506 C24 succinate (as represented by Formula VII), Reduced FK506 (as represented by Formula IV), FK506 22-oxime-32-isocyanatoacetatethyl ester (as represented by Formula VI), and FK506 oxime (as represented by Formula V).
The ability of the FK analogs to displace everolimus drug in the everolimus assay is a function of their FKBP (macrophilin) binding. So the curve size after adding the displacer indicates the ability of their FKBP binding: the larger the curve size, the better the binding.

Everolimus standard curve signal with displacer ([3]; BV 0 ng/mL everolimus)	Everolimus standard curve signal with displacer ([3]; BV 5.5 ng/mL everolimus)	Everolimus standard curve signal with displacer ([3]; BV 11.2 ng/mL everolimus)	Everolimus standard curve signal with displacer ([3]; BV 21.9 ng/mL everolimus)	Everolimus standard curve signal with displacer ([3]; BV 34.3 ng/mL everolimus)	SMILES	% Cross-Reactivity [1]	Cross-reactivity with tacrolimus assay antibody (in words) [2]	% Cross-Reactivity [2]	Cross-reactivity with everolimus assay antibody (in words) ([1]; 155-M1 clone)
16	71	108	145	157	C=CC[C@@H]1/C=C(\C)C[C@H](C)C[C@H](OC)[C@H]2O[C@@](O)(C(=O)C(=O)N3CCCC[C@H]3C(=O)O[C@H](/C(C)=C/[C@@H]3CC[C@@H](O)[C@H](OC)C3)[C@H](C)[C@@H](OC(=O)CCC(=O)O)CC1=O)[C@H](C)C[C@@H]2OC [24-Succinate FK506, FK506 C24 succinate]	0.01%	much lower cross-reactivities	13.3%	–
17	67	104	143	156	C=CC[C@@H]1/C=C(\C)C[C@H](C)C[C@H](OC)[C@H]2O[C@@](O)(C(=O)C(=O)N3CCCC[C@H]3C(=O)O[C@H](/C(C)=C/[C@@H]3CC[C@@H](O)[C@H](OC)C3)[C@H](C)[C@@H](O)CC1=O)[C@H](C)C[C@@H]2OC [FK506, Tacrolimus, reference compound]	0.01%	–	100%	substantially no cross-reactivity
18	68	102	140	154	CCC[C@@H]1CC(C)C[C@H](C)C[C@H](OC)[C@H]2O[C@@](O)(C(=O)C(=O)N3CCCC[C@H]3C(=O)O[C@H](C(C)C[C@@H]3CC[C@@H](OC(=O)NCC(=O)OCC)[C@H](OC)C3)[C@H](C)[C@@H](O)CC1=NOCC(=O)O)[C@H](C)C[C@@H]2OC (stereo partly drawn) [FK-506-1]	0.02%	much lower cross-reactivities	1.5%	–
